Measurements: US10501454B2, “Monocyclic β-lactam-siderophore conjugate, and preparation method and use thereof” (Shanghai Institute of Materia Medica, Chinese Academy of …, priority 2016, dated 2019)
Where a name gives a salt, the structure may show the parent alone.

Assays:
[1] = tested on: Acinetobacter baumannii (4 strains); assay: MIC, broth microdilution, normal MH medium; format: cell-based; conditions: Acinetobacter baumannii, read-out: Antibacterial activity MIC, Acinetobacter baumarmii (4 strains)
Procedure: (§1) Supplier of the strains: all of the above strains were provided by Sichuan Primed Shines Bio-tech Co., Ltd. A single colony was isolated by streaking on agar plates for each strain prior to the experiment, and the cells freshly cultured at 37° C. overnight were appropriately diluted for the experiment.
(§2) Medium: MH liquid medium (OXOID).
(§3) Culture condition: cells were incubated at 35-37° C. for 16-18 h.
(§4) The broth microdilution method recommended by Clinical and Laboratory Standards Institute (CLSI), Performance Standards for Antimicrobial Susceptibility Testing; Twenty-Third Informational Supplement, M02-All, M07-A9 and M11-A8, 2013 was used to determine the MIC value of each test sample against each test strain in the normal MH medium and iron-deficient MH medium.
(§5) After diluting each sample to different concentrations with normal MH medium, 100 μl of each test sample solution at different concentrations was separately aspirated onto a 96-well sterile polystyrene plate. Drug solutions were added to the 1st to 10th well with the final concentrations of 16, 8, 4, 2, 1, 0.5, 0.25, 0.125, 0.06, and 0.03 mg/L in each well, respectively. The 11th well, as a blank control, was not added with drugs and bacteria. The 12th well, as a bacterial growth control, was added with bacteria but no drug.
(§6) The test bacterial liquid was adjusted to a bacterial suspension of 0.5 Mcfarland standard with physiological saline, and diluted with MH broth at 1:100, and then added to the drug solution so that a final concentration of the bacterial liquid was approximately 10^4 CFU/ml; 100 μl of the bacterial liquid was further added to each of the above wells (the total volume in each well is 200 μl), which was sealed and placed in a 35-37° C. incubator for 18-20 h for testing the result. The OD600 value was measured by a microplate reader, Minimal Inhibitory Concentration (MIC) of a drug is the lowest concentration of the drug which prevents growth of bacteria in the wells. 1.2.2 MIC in iron-deficient MH medium

[2] = tested on: Escherichia coli (4 strains); assay: MIC, broth microdilution, normal MH medium; format: cell-based
Procedure: as §1, §2, §3, §4, §5, §6

[3] = tested on: Pseudomonas aeruginosa (4 strains); assay: MIC, broth microdilution, normal MH medium; format: cell-based; conditions: Pseudomonas aeruginosa, multidrug-resistant clinical isolates (integrator I, IMP4), read-out: Antibacterial activity MIC, Pseudomonas aeruginosa (4 strains)
Procedure: as §1, §2, §3, §4, §5, §6

[4] = tested on: Escherichia coli ATCC 35218; assay: MIC, broth microdilution, iron-deficient MH medium; format: cell-based; conditions: Escherichia coli, ATCC35218; iron-deficient MH medium (16 mg/L 2,2'-bipyridine); quality control strain; read-out: Antibacterial activity MIC, Escherichia coli ATCC 35218
Procedure: Strain for quality control: Escherichia coli ATCC35218, purchased from National Center of Clinical Laboratory.
as §2, §3, §4
(§7) BPL was added to the normal MH medium to obtain a final concentration of 16 mg/L; According to the method in Section 1.2.1, 100 μl of each test sample solution at different concentrations was aspirated to the 1st to 10th well in a 96-well sterile polystyrene plate to obtain the final drug concentrations of 16, 8, 4, 2, 1, 0.5, 0.25, 0.125, 0.06, and 0.03 mg/L, respectively. Then, 100 μl of the test bacterial liquid was added to each well (200 μl per well), and the final concentration of the bacterial liquid was approximately 10^4 CFU/ml. After sealing, it was placed in a 35-37° C. incubator for 18-20 hours for testing the result. The OD600 value was measured by a microplate reader, Minimal Inhibitory Concentration (MIC) of a drug is the lowest concentration of the drug which prevents growth of bacteria in the wells.

[5] = tested on: Acinetobacter baumannii (4 strains); assay: MIC, broth microdilution, iron-deficient MH medium; format: cell-based; conditions: Acinetobacter baumannii; iron-deficient MH medium (16 mg/L 2,2'-bipyridine); multidrug-resistant clinical isolates (integron I, OXA23); read-out: Antibacterial activity MIC, Acinetobacter baumannii (4 strains)
Procedure: as §1, §2, §3, §4, §7

[6] = tested on: Escherichia coli (4 strains); assay: MIC, broth microdilution, iron-deficient MH medium; format: cell-based; conditions: Escherichia coli; iron-deficient MH medium (16 mg/L 2,2'-bipyridine); clinical isolates (ESBLs); read-out: Antibacterial activity MIC, Escherichia coli (4 strains)
Procedure: as §1, §2, §3, §4, §7

[7] = tested on: Klebsiella pneumoniae (4 strains); assay: MIC, broth microdilution, iron-deficient MH medium; format: cell-based
Procedure: as §1, §2, §3, §4, §7

[8] = tested on: Pseudomonas aeruginosa (4 strains); assay: MIC, broth microdilution, iron-deficient MH medium; format: cell-based; conditions: Pseudomonas aeruginosa; iron-deficient MH medium (16 mg/L 2,2'-bipyridine); multidrug-resistant clinical isolates (integrator I, IMP4); read-out: Antibacterial activity MIC, Pseudomonas aeruginosa (4 strains)
Procedure: as §1, §2, §3, §4, §7

[9] = Pharmacokinetic test in rats, intravenous; format: in vivo; conditions: SD rats, intravenous 1.0 mg/kg, plasma
Procedure: 2.1.2 Test animals: 6 SD rats, male, weight: 200-220 g.
2.1.3 Drug Preparation: an appropriate amount of the sample was weighed and prepared into a 0.2 mg/mL solution with water for injection.
2.1.4 Administration of the drug: 6 SD rats, male, weight: 200-220 g, were randomly divided into two groups, 3 rats in each group. […] The intravenous dose was 1.0 mg/kg, and the intravenous volume was 5 mL/kg.
Intravenous administration: 2 min, 5 min, 15 min, 30 min, 45 min, 1 h, 1.5 h and 3 h after administration. At the above set time points, 0.3 ml of venous blood was taken from the posterior venous plexus of the rat eye, placed in a heparinized tube, centrifuged at 11,000 rpm for 5 min, then the plasma was separated and stored in a refrigerator at −20° C. All of the rats were fed 2 hours after administration.
After administration, the pharmacokinetic parameters were calculated using a non-compartmental model of WinNonlin 5.3 software (Pharsight, USA).

With CC(C)C(O/N=C(\C(=O)N[C@@H]1C(=O)N(OS(=O)(=O)O)C1(C)C)c1csc(N)n1)c1cc(=O)c(O)cn1O (stereo partly drawn) [Compound 12, (3S)-3-((Z)-2-(2-aminothiazol-4-yl)-2-((1-(1,5-dihydroxy-4-oxo-1,4-dihydropyridin-2-yl)methylisopropyloxy)imine)acetamido)-2,2-dimethyl-4-oxoazetidine-1-hydrogen sulfate] the MIC [1] was 2 µg/mL, the MIC ([2]; Escherichia coli, clinical isolates (ESBLs), read-out: Antibacterial activity MIC, Escherichia coli (4 strains)) was 0.03 to 0.25 µg/mL and the “times more effective than BAL30072 in inhibitory activity against Escherichia coli” value ([2]; from MIC of Table 2) was 4-32 times. It also gave an MIC [3] of 0.25 to 2 µg/mL, an MIC [4] of less than 0.03 µg/mL and an MIC [5] of 0.5 to 1 µg/mL. For the same molecule, the MIC [6] was 0.03 to 0.25 µg/mL, the MIC ([7]; Klebsiella pneumoniae, iron-deficient MH medium (16 mg/L 2,2'-bipyridine), multi-drug resistant clinical isolates (KPC2), read-out: Antibacterial activity MIC, Klebsiella pneumoniae (4 strains)) was 0.25 to 0.5 µg/mL and the “times more effective than BAL30072 in inhibitory activity against Klebsiella pneumonia” value ([7]; iron-deficient MH medium, from MIC of Table 3) was 128-256 times. For the same molecule, the MIC [8] was 0.25 to 1 µg/mL, the “Clearance CL” value [9] was 11 ± 5.5 mL/min/kg and the “Half-life T1/2” value [9] was 27 ± 6.6 min. For the same molecule, the Vd ([9]; male, rat, in vivo, read-out: Apparent Distribution Volume Vss) was 0.3 ± 0.03 L/kg, the AUC(0-t) ([9]; male, rat, in vivo, read-out: Area Under the Curve AUC0-4) was 1730 ± 697 ng·h/mL and the MRT ([9]; male, rat, read-out: Residence Time MRT) was 30.6 ± 10.8 min.
